Read-outs that look alike come from different tables or passages of the source.
Experiments:
[1] = test system: Myotonic Dystrophy 1 affected patient fibroblasts (Coriel GM04602; 1600 CTG repeats); experiment: DM1 foci reduction assay (EC50 assay; CAG10-Cy3 FISH, foci per nucleus); assay type: cell-based; conditions: Homo sapiens, Fibroblast
Procedure, shortened: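 Foci per nucleus counted by 20× imaging of 4 areas per well, after overnight FISH with 5 nM CAG10-Cy3 and DAPI staining of fixed, permeabilized cells. DM1 fibroblasts (GM04602, 1600 CTG) were dosed 48 h at 37 °C, 8 points, 3-fold dilutions, 3 μM top concentration.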

F35T cells = experiment: Foci reduction in FECD (CAG10-Cy3 FISH, foci per nucleus); assay type: cell-based
Procedure, shortened: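 Foci per nucleus were counted by imaging after overnight CAG10-Cy3 FISH at 37 °C (30% formamide, 2×SSC) with DAPI counterstain, on PFA-fixed, ethanol-permeabilized F35T cells. The cells, seeded at 5000 per well in supplemented Opti-MEM, had received 8-point compound dilutions for 48 h at 37 °C.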

[2] = DM1 patient fibroblasts, 48 h treatment, foci per nucleus, read-out: DM1 EC50, 48 h
[3] = F35T cells, 48 h treatment, foci per nucleus, read-out: FECD EC50, 48 h
[4] = 48 h, read-out: DM1 EC50, 48 h (nM)
[5] = 48 h, read-out: FECD EC50, 48 h (nM)
[6] = DM1 patient fibroblasts, foci per nucleus, 48 h treatment, read-out: DM1 EC50, 48 h
[7] = F35T cells, foci per nucleus, 48 h treatment, read-out: FECD EC50, 48 h

SMILES | EC50 [1, 2] | EC50 (F35T cells; [3]) | further results
CC(=O)N1CCC(C#CC#CC2CCN(C(=O)CCNC(=O)c3nc(NC(=O)c4cc(NC(=O)CCNC(=O)c5nc(NC(=O)CCCNC(=O)c6cc(NC(=O)c7nc(NC(=O)CCNC(=O)c8cc(NC(=O)c9nccn9C)cn8C)cn7C)cn6C)cn5C)cn4C)cn3C)CC2)CC1 [Compound B-379] | 100 to 500 nM | < 100 nM | –
Cn1cc(NC(=O)c2nc(NC(=O)CCNC(=O)c3cc(NC(=O)c4nccn4C)cn3C)cn2C)cc1C(=O)NCCCC(=O)Nc1cn(C)c(C(=O)NCCC(=O)Nc2cc(C(=O)Nc3cn(C)c(C(=O)NCCC(=O)N4CCC(C#CC#CC5CCOCC5)CC4)n3)n(C)c2)n1 [Compound B-380] | < 100 nM | < 100 nM | –
CC#CC#CC1CCN(C(=O)CCNC(=O)c2nc(NC(=O)c3cc(NC(=O)CCNC(=O)c4nc(NC(=O)CCCNC(=O)c5cc(NC(=O)c6nc(NC(=O)CCNC(=O)c7cc(NC(=O)c8nccn8C)cn7C)cn6C)cn5C)cn4C)cn3C)cn2C)CC1 [Compound B-381] | 100 to 500 nM | 100 to 500 nM | –
Cn1cc(NC(=O)c2nc(NC(=O)CCNC(=O)c3cc(NC(=O)c4nccn4C)cn3C)cn2C)cc1C(=O)NCCCC(=O)Nc1cn(C)c(C(=O)NCCC(=O)Nc2cc(C(=O)Nc3cn(C)c(C(=O)NCCCN(CC#Cc4cccc(C(=O)O)c4)CCCN)n3)n(C)c2)n1 [Compound B-383] | > 1000 nM | < 100 nM | –
Cn1cc(NC(=O)c2nc(NC(=O)CCNC(=O)c3cc(NC(=O)c4nccn4C)cn3C)cn2C)cc1C(=O)NCCCC(=O)Nc1cn(C)c(C(=O)NCCC(=O)Nc2cc(C(=O)Nc3cn(C)c(C(=O)NCCCN(CC#Cc4ccc(C(=O)O)cc4)CCCN)n3)n(C)c2)n1 [Compound B-384] | 100 to 500 nM | 100 to 500 nM | –
Cn1cc(NC(=O)c2nc(NC(=O)CCNC(=O)c3cc(NC(=O)c4nccn4C)cn3C)cn2C)cc1C(=O)NCCCC(=O)Nc1cn(C)c(C(=O)NCCC(=O)Nc2cc(C(=O)Nc3cn(C)c(C(=O)NCCC(=O)N4CCC(C#CC#CC5CCCCC5)CC4)n3)n(C)c2)n1 [Compound B-385] | > 1000 nM | 100 to 500 nM | –
Cn1cc(NC(=O)c2nc(NC(=O)CCNC(=O)c3cc(NC(=O)c4nccn4C)cn3C)cn2C)cc1C(=O)NCCCC(=O)Nc1cn(C)c(C(=O)NCCC(=O)Nc2cc(C(=O)Nc3cn(C)c(C(=O)NCCCN(C(=O)OC(C)(C)C)C(CO)CO)n3)n(C)c2)n1 [Compound B-390] | 100 to 500 nM | 100 to 500 nM | –
Cn1cc(NC(=O)c2nc(NC(=O)CCNC(=O)c3cc(NC(=O)c4nccn4C)cn3C)cn2C)cc1C(=O)NCCCC(=O)Nc1cn(C)c(C(=O)NCCC(=O)Nc2cc(C(=O)Nc3cn(C)c(C(=O)NCCC(=O)NC4COP(=O)(Oc5ccccc5Cl)OC4)n3)n(C)c2)n1 (centres unmarked) [Compound B-391] | – | – | EC50 [1, 4]: > 1000 nM; EC50 (F35T cells; [5]): > 1000 nM
Cn1cc(NC(=O)c2nc(NC(=O)CCNC(=O)c3cc(NC(=O)c4nccn4C)cn3C)cn2C)cc1C(=O)NCCCC(=O)Nc1cn(C)c(C(=O)NCCC(=O)Nc2cc(C(=O)Nc3cn(C)c(C(=O)NCCC(=O)NC4COP(=O)(O)OC4)n3)n(C)c2)n1 (centres unmarked) [Compound B-392] | 500 to 1000 nM | > 1000 nM | –
Cn1cc(NC(=O)c2nc(NC(=O)CCNC(=O)c3cc(NC(=O)c4nccn4C)cn3C)cn2C)cc1C(=O)NCCCC(=O)Nc1cn(C)c(C(=O)NCCC(=O)Nc2cc(C(=O)Nc3cn(C)c(C(=O)NCCC(=O)NC(CO)COP(=O)(O)Oc4ccccc4Cl)n3)n(C)c2)n1 (centres unmarked) [Compound B-394] | – | – | EC50 [1, 4]: 100 to 500 nM; EC50 (F35T cells; [5]): 500 to 1000 nM
CCOC(=O)CCNC(=O)c1nc(NC(=O)c2cc(NC(=O)CCNC(=O)c3nc(NC(=O)CCCNC(=O)c4cc(NC(=O)c5nc(NC(=O)CCNC(=O)c6cc(NC(=O)c7nccn7C)cn6C)cn5C)c[nH]4)cn3C)cn2C)cn1C [Compound B-395] | 500 to 1000 nM | 100 to 500 nM | –
CCCNC(=O)CCNC(=O)c1nc(NC(=O)c2cc(NC(=O)CCNC(=O)c3nc(NC(=O)CCCNC(=O)c4cc(NC(=O)c5nc(NC(=O)CCNC(=O)c6cc(NC(=O)c7nccn7C)cn6C)cn5C)c[nH]4)cn3C)cn2C)cn1C [Compound B-396] | 100 to 500 nM | 100 to 500 nM | –
CCCNC(=O)CCNC(=O)c1nc(NC(=O)c2cc(NC(=O)CCNC(=O)c3nc(NC(=O)CCCNC(=O)c4cc(NC(=O)c5nc(NC(=O)CCNC(=O)c6cc(NC(=O)c7nccn7C)cn6C)cn5C)cn4CCCCCNC(=O)c4ccccc4)cn3C)cn2C)cn1C [Compound B-397] | 100 to 500 nM | 100 to 500 nM | –
CCCNC(=O)CCNC(=O)c1nc(NC(=O)c2cc(NC(=O)CCNC(=O)c3nc(NC(=O)CCCNC(=O)c4cc(NC(=O)c5nc(NC(=O)CCNC(=O)c6cc(NC(=O)c7nccn7C)cn6C)cn5C)cn4CCCCCNC(=O)C(C)(C)C)cn3C)cn2C)cn1C [Compound B-398] | 100 to 500 nM | 100 to 500 nM | –
C=C(NCCC(=O)Nc1cc(C(=O)Nc2cn(C)c(C(=O)NCCC(=O)NCCC)n2)n(C)c1)c1nc(NC(=O)CCCNC(=O)c2cc(NC(=O)c3nc(NC(=O)CCNC(=O)c4cc(NC(=O)c5nccn5C)cn4C)cn3C)cn2CCCNC(=O)c2ccccc2)cn1C [Compound B-399] | 500 to 1000 nM | < 100 nM | –
C=C(NCCC(=O)Nc1cc(C(=O)Nc2cn(C)c(C(=O)NCCC(=O)NCCC)n2)n(C)c1)c1nc(NC(=O)CCCNC(=O)c2cc(NC(=O)c3nc(NC(=O)CCNC(=O)c4cc(NC(=O)c5nccn5C)cn4C)cn3C)cn2CCCNC(=O)C(C)(C)C)cn1C [Compound B-400] | < 100 nM | < 100 nM | –
C=C(NCCC(=O)Nc1cc(C(=O)Nc2cn(C)c(C(=O)NCCC(=O)NCCC)n2)n(C)c1)c1nc(NC(=O)CCCNC(=O)c2cc(NC(=O)c3nc(NC(=O)CCNC(=O)c4cc(NC(=O)c5nccn5C)cn4C)cn3C)cn2CCCn2cc(COCCOCCOCCOC)nn2)cn1C [Compound B-401] | 100 to 500 nM | < 100 nM | –
C=C(NCCC(=O)Nc1cc(C(=O)Nc2cn(C)c(C(=O)NCCC(=O)N3CCC(C#CC#CC4CCN(C(C)=O)CC4)CC3)n2)n(C)c1)c1nc(NC(=O)CCCNC(=O)c2cc(NC(=O)c3nc(NC(=O)CCNC(=O)c4cc(NC(=O)c5nccn5C)cn4C)cn3C)cn2CCCn2cc(COCCOCCOCCOC)nn2)cn1C [Compound B-402] | 100 to 500 nM | < 100 nM | –
CCCNC(=O)CCNC(=O)c1nc(NC(=O)c2cc(NC(=O)CCNC(=O)c3nc(NC(=O)CCCNC(=O)c4cc(NC(=O)c5nc(NC(=O)CCNC(=O)c6cc(NC(=O)c7nccn7C)cn6C)cn5C)cn4CC(C)C)cn3C)cn2C)cn1C [Compound B-403] | < 100 nM | < 100 nM | –
CC(=O)N[C@H](CCNC(=O)c1cc(NC(=O)c2nc(NC(=O)CCNC(=O)c3cc(NC(=O)c4nccn4C)cn3C)cn2C)cn1C)C(=O)Nc1cn(C)c(C(=O)NCCC(=O)Nc2cc(C(=O)Nc3cn(C)c(C(=O)NCCC(=O)N4CCN(C)CC4)n3)n(C)c2)n1 [Compound B-404] | 500 to 1000 nM | 100 to 500 nM | –
CN1CCN(C(=O)CCNC(=O)c2nc(NC(=O)c3cc(NC(=O)CCNC(=O)c4nc(NC(=O)[C@H](N)CCNC(=O)c5cc(NC(=O)c6nc(NC(=O)CCNC(=O)c7cc(NC(=O)c8nccn8C)cn7C)cn6C)cn5C)cn4C)cn3C)cn2C)CC1 [Compound B-405] | > 1000 nM | > 1000 nM | –
Cn1cc(NC(=O)c2nccn2C)cc1C(=O)NCCC(=O)Nc1cn(C)c(C(=O)Nc2cc(C(=O)NCC[C@@H](N)C(=O)Nc3cn(C)c(C(=O)NCCC(=O)Nc4cc(C(=O)Nc5cn(C)c(C(=O)CCCC(=O)N6CCCCC6)n5)n(C)c4)n3)n(C)c2)n1 [Compound B-406] | 100 to 500 nM | > 1000 nM | –
Cn1cc(NC(=O)c2nccn2C)cc1C(=O)NCCC(=O)Nc1cn(C)c(C(=O)Nc2cc(C(=O)NCC[C@@H](N)C(=O)Nc3cn(C)c(C(=O)NCCC(=O)Nc4cc(C(=O)Nc5cn(C)c(C(=O)NCCC(=O)N6CCC(C#CC#CC7CCNCC7)CC6)n5)n(C)c4)n3)n(C)c2)n1 [Compound B-407] | 100 to 500 nM | 500 to 1000 nM | –
CCCCn1cc(NC(=O)c2nc(NC(=O)CCNC(=O)c3cc(NC(=O)c4nccn4C)cn3C)cn2C)cc1C(=O)NCC[C@@H](N)C(=O)Nc1cn(C)c(C(=O)NCCC(=O)Nc2cc(C(=O)Nc3cn(C)c(C(=O)NCCC(=O)N4CCN(C)CC4)n3)n(C)c2)n1 [Compound B-408] | 100 to 500 nM | 100 to 500 nM | –
CCCNC(=O)c1nc(NC(=O)c2cc(NC(=O)CCNC(=O)c3nc(NC(=O)[C@H](N)CCNC(=O)c4cc(NC(=O)c5nc(NC(=O)CCNC(=O)c6cc(NC(=O)c7nccn7C)cn6C)cn5C)cn4C)cn3C)cn2C)cn1C [Compound B-409] | < 100 nM | < 100 nM | –
CN(C)CCCCNC(=O)c1nc(NC(=O)c2cc(NC(=O)CCNC(=O)c3nc(NC(=O)[C@H](N)CCNC(=O)c4cc(NC(=O)c5nc(NC(=O)CCNC(=O)c6cc(NC(=O)c7nccn7C)cn6C)cn5C)cn4C)cn3C)cn2C)cn1C [Compound B-410] | – | – | EC50 [1, 6]: 500 to 1000 nM; EC50 (F35T cells; [7]): > 1000 nM
COCCOCCOCCOCCOCCOCCOc1ccc(C#CCNCCCNC(=O)c2nc(NC(=O)c3cc(NC(=O)CCNC(=O)c4nc(NC(=O)CCCNC(=O)c5cc(NC(=O)c6nc(NC(=O)CCNC(=O)c7cc(NC(=O)c8nccn8C)cn7C)cn6C)cn5C)cn4C)cn3C)cn2C)cc1 [Compound B-412] | – | – | EC50 [1, 6]: > 1000 nM; EC50 (F35T cells; [7]): < 100 nM
COCCOCCOCCOCCOCCOCCOc1ccccc1C#CCNCCCNC(=O)c1nc(NC(=O)c2cc(NC(=O)CCNC(=O)c3nc(NC(=O)CCCNC(=O)c4cc(NC(=O)c5nc(NC(=O)CCNC(=O)c6cc(NC(=O)c7nccn7C)cn6C)cn5C)cn4C)cn3C)cn2C)cn1C [Compound B-414] | – | – | EC50 [1, 6]: 100 to 500 nM; EC50 (F35T cells; [7]): < 100 nM

— US20250368628A1, “METHODS AND COMPOUNDS FOR MODULATING INHERITED GENETIC DISEASES” (Design Therapeutics, Inc., priority 2022, published 2025)
